These results are taken from US6750058B1, “Transfecting peptide vector, composition containing same and applications” (Commissariat a l'Energie Atomique, priority 1997, dated 2004).

The test system of one data set is Human erythrocytes. Briefly: Haemolytic test. Particulars: 6 μg of peptide I, 10^6 erythrocytes, 37° C. In kind it is cell-based. As for the experimental part: Human erythrocytes are washed 3 times with PBS buffer. 10^6 erythrocytes are incubated with 6 μg of peptide I for various periods of time at 37° C. After centrifugation at 10,000 g for 5 min, the optical density of the supernatant is measured at 540 nm.

The subject of another data set is HeLa cells. Briefly: Transfection of HeLa cells with luciferase plasmid pGL3, light emission in cell lysates. It counts as cell-based. The following applies: for RLU (luciferase light emission): DNA 1.5 μg; for transfection (in words): summary of Table II. As for the experimental part:
The HeLa cells are cultured at 37° C. in an EMEM medium supplemented with 10% foetal calf serum under an atmosphere containing 5% CO2.
1.5 to 12 μg of peptide I in 50 μl of dilution buffer (20 mM Tris, pH 7.4, 150 mM NaCl) are incubated with 1.5 μg of plasmid pGL3 in 250 μl of EMEM medium for 15 to 30 min at room temperature.
The mixture of DOTAP or of DOSPER with 1.5 μg of plasmid pGL3 is prepared according to the manufacturer's instructions (Boehringer). For the studies of the effect of the peptide on transfection in the presence of liposomes, portions of peptides are mixed with DOTAP or DOSPER in the dilution buffer defined above for 15 to 30 min at room temperature, and then 1.5 μg of plasmid pGL3 are added and incubated for 15 min at room temperature.
The transfections are carried out in plates comprising 24 wells (Beckton Dickinson) with 1.5×10^5 cells/well (confluence of about 50%) for 1 h at 37° C. After 24 h, the light emission is measured in the cell lysates with the Promega Luciferase Assay System test.

Consider `CC(C)C[C@H](NC(=O)[C@H](CCCNC(=N)N)NC(=O)[C@H](C)NC(=O)[C@H](CCCNC(=N)N)NC(=O)[C@H](CCCCN)NC(=O)[C@H](C)N)C(=O)N[C@@H](CO)C(=O)N[C@H](C(=O)N[C@@H](CO)C(=O)N[C@@H](Cc1ccccc1)C(=O)N[C@@H](CC(N)=O)C(=O)N1CCC[C@H]1C(=O)N[C@H](C(=O)N[C@@H](Cc1ccc(O)cc1)C(=O)N1CCC[C@H]1C(=O)N[C@@H](Cc1ccc(O)cc1)C(=O)N[C@@H](CCC(=O)O)C(=O)N[C@@H](CC(=O)O)C(=O)N[C@@H](CCC(=O)O)C(=O)N[C@@H](CO)C(=O)N[C@@H](CCCCN)C(=O)N[C@@H](CCCCN)C(=O)N[C@@H](CCCCN)C(=O)N[C@@H](CCCCN)C(=O)N[C@@H](CCCCN)C(=O)N[C@@H](CCCCN)C(=O)N[C@@H](CCCCN)C(=O)N[C@@H](CCCCN)C(=O)N[C@@H](CCCCN)C(=O)N[C@@H](CCCCN)C(=O)N[C@@H](CCCCN)C(=O)N[C@@H](CCCCN)C(=O)N[C@@H](CCCCN)C(=O)N[C@@H](CCCCN)C(=O)N[C@@H](CCCCN)C(=O)N[C@@H](CCCCN)C(=O)N[C@@H](CCCCN)C(=O)N[C@@H](CCCCN)C(=O)N[C@@H](CCCCN)C(=O)N[C@@H](CCCCN)C(=O)O)C(C)C)[C@@H](C)O` [Peptide I, AKRARLSTSFNPVYPYEDES - K20], for which the haemolytic test result in the data set with Human erythrocytes is given as “negative results”.
In the case of “A K R A R L S T S E D E S-K10 (AKRARLSTSEDESKKKKKKKKKK) [Peptide IE]”, the “RLU (luciferase light emission)” value with HeLa cells (Table II, peptide 3 μg) is 1 RLU/10 s/10^5 cells × 10^3; in the data set with HeLa cells (Table II, peptide 6 μg) it was 10 RLU/10 s/10^5 cells × 10^3; with HeLa cells (Table II, peptide 9 μg) it was 110 RLU/10 s/10^5 cells × 10^3; with HeLa cells (Table II, peptide 12 μg), 330 RLU/10 s/10^5 cells × 10^3. The “times less efficient than peptide IC” value in the data set on HeLa cells (transfection efficiency, Table II) is “approximately 30 times”.
On to “AKRARLSTSFNPVYPYEDES - K10 [Peptide IC]”, for which the “RLU (luciferase light emission)” value with HeLa cells (Table II, peptide 3.6 μg) was 1 RLU/10 s/10^5 cells × 10^3; with HeLa cells (Table II, peptide 9 μg), 2870 RLU/10 s/10^5 cells × 10^3; in the data set on HeLa cells (Table II, peptide 12 μg), 1330 RLU/10 s/10^5 cells × 10^3. The “effect of reduced number of lysines in the polylysine polymer on transfection efficiency” value in the data set on HeLa cells (can be compensated for by increasing the quantity of peptide) was “modest negative effect”.
As to “AKRARLSTSFNPVYPYEDES [Peptide IA]”, the “RLU (luciferase light emission)” value in the data set with HeLa cells (Table II, peptide 3-12 μg) is 1 RLU/10 s/10^5 cells × 10^3. The “transfection (in words)” value with HeLa cells is listed as “no transfection”.
“L S T S F N P V Y P Y E D E S-K20 [Peptide ID]”: in the data set with HeLa cells, the “attaching and condensing the DNA and entering into the cell” value was “still capable of attaching and condensing the DNA and of entering into the cell”; the “transport of the DNA into the nucleus” value is on record as “incapable of transporting this DNA into the nucleus”; the “transfection (in words)” value is “no transfection”. In the data set with HeLa cells (Table II, peptide 3-12 μg), the “RLU (luciferase light emission)” value is 1 RLU/10 s/10^5 cells × 10^3.
